# In patent US6632616B2, “Compounds that selectively bind to expanded polyglutamine repeat domains and methods of use thereof” (Duke University, priority 2000, dated 2003):
# “Also recorded” adds a separate entry of the source. Read-outs that look alike come from different tables or passages of the source. No end group written: not given here.
# What was measured:
# thio-Q62 = assay: Thioredoxin-polyglutamine turbidity (aggregation) assay, thio-Q62; format: biochemical; details: for Ability to Inhibit Aggregation: 62 glutamines, 10 days; for inhibition of thio-Q62 aggregation (in words): turbidity at 405 nm, FIG. 2
# Method: (§1) Turbidity assays were performed in 200 μl reactions consisting of thioredoxin-polyglutamine in PBS in 96-well, low protein binding plates. Plates were incubated at 4° C. and turbidity measured at 405 nm on a Thermo Max plate reader (Molecular Devices).
# (§2) Peptides were synthesized at the Howard Hughes Medical Institute peptide sequencing facility at Duke University with an acetylated amino terminus and protection of tryptophan with BOC during synthesis. Identical results were obtained with peptides obtained from Bio-Synthesis Inc. (Lewisville, Tex.). Stock solutions of peptides were prepared fresh daily by dissolving in dimethyl sulfoxide at 2.5 mM and incubated with thioredoxin-polyglutamine protein at 0.25-25 μM.
# (§3) To monitor thioredoxin-polyglutamine protein aggregation a turbidometric assay was developed, similar to the assays commonly used to study microtubule assembly and β-amyloid aggregation (Jarrett, J. T. et al. (1993) Biochem 32, 4693-4697; Sloboda, R. D. et al. (1976) Biochem 15, 4497-4505). Solutions of thio-Q62 and 81 protein increased turbidity in a polyglutamine length-, time- and concentration-dependent manner (FIG. 1B and C; Time dependence of aggregation of thioredoxin-polyglutamine with 81 glutamines not shown). […] The pelleted and retained material was confirmed as thioredoxin-polyglutamine fusion protein containing 62 or 81 glutamines on western blots probed with anti-thioredoxin or anti-polyglutamine antibody (not shown). In contrast, thioredoxin-polyglutamine protein containing 19 or 35 glutamines (thio-Q19 or 35) was not pelleted by centrifugation and was not trapped by a 0.22 μm filter.
# Q81-YFP [1] = assay: Peptides added to transfected COS 7 cells expressing Q81-YFP: aggregation; format: cell-based
# Text: (§4) Several proteins can ferry peptides or proteins into cells through the plasma membrane including HIV transactivator protein (TAT) (SEQ ID NO:37), antennapedia (SEQ ID NO:38), and herpes simplex virus type 1 protein 22 (SEQ ID NO:39) (Prochiantz, Curr Opin Cell Biol. 12:400-406 (2000)). […] The arginine-rich domains of these proteins are sufficient to transport some intact proteins even when fused to non-native proteins. The ability of polyglutamine-binding peptides fused to a TAT fragment to enter transfected COS 7 cells and inhibit polyglutamine aggregation and cell death was examined.
# [2] = tested on: COS 7 cells expressing Q81-YFP; assay: Peptides added to transfected COS 7 cells expressing Q81-YFP: cell death; format: cell-based
# Text: as §4
# Qn-YFP = assay: Polyglutamine-YFP (Qn-YFP) aggregate formation in co-transfected COS-7 cells, all lengths; format: cell-based; details: co-expression, 48 hours after transfection, FIG. 4
# Method: COS-7 cells examined 48 hours after transfection using a Zeiss fluorescence microscope with the CFP/YFP filter set from Omega Optical Inc. The percentage of cells with aggregates was calculated by counting the number of transfected cells containing aggregate and dividing by the total number of transfected cells multiplied times 100. In each experiment at least 200 transfected cells were counted. Experiments were repeated at least four times. Error bars represent standard errors. *=p<0.05;**=p<0.01 (Student's t-test)
# (§5) The CAG repeat of the Qn-GFP vector (Onodera, O. et al. (1996) FEBS Letters 399, 135-139) were inserted into the XhoI and EcoRI sites of the pEYFP-N1 vector (Clontech, Palo Alto, Calif.) to construct the Qn-YFP vectors. The polyglutamine-binding peptide and control constructs were prepared by ligating synthetic oligonucleotides into the XhoI and BamHI sites of the pECFP-N1 vector (Clontech) to obtain glutamine binding peptide 1-CFP (QBP1-CFP), scrambled QBP1-CFP (SCR-CFP), and a computer-generated random peptide-CFP (RAN)-CFP. The insert of QBP1-CFP was duplicated by PCR to obtain a tandem repeat of QBP1-CFP ((QBP1)2-CFP). The sequence of all constructs was confirmed by DNA sequencing. […]
# (§6) COS-7 cells were grown and maintained in Dulbecco's modified Eagles' medium (DMEM) supplemented with 10% fetal calf serum (FCS). […] Cells were examined 48 hours after transfection using a Zeiss fluorescence microscope equipped with YFP/CFP filter sets (Omega Optical Inc., Brattleboro, Vt.). The percentage of cells with aggregates was calculated by dividing the number of cells with aggregates by the total number of fluorescent cells, multiplied by 100. […] Cells were incubated with 5 μM ethidium homodimer for 30 minutes (37° C.) and then examined under a fluorescence microscope equipped with a rhodamine filter set. Cells with nuclear fluorescence were counted as dead. In each experiment at least 200 transfected cells were counted. […]
# thio-Q19 or 35 = assay: Thioredoxin-polyglutamine turbidity assay, nonpathologic thio-Q19 or 35; format: biochemical
# Method: as §1, §2, §3
# [3] = tested on: Q57-YFP induced cell death; assay: Q57-YFP induced cell death in co-transfected COS-7 cells (ethidium homodimer); format: cell-based; details: peptides fused to CFP, co-expressed; for inhibition of Q57-YFP induced cell death: COS-7, 48 hours, ethidium homodimer
# Method: FIG. 5. […] Open bar=cells co-transfected with Q57-YFP and RAN-CFP. Hatched bar=cells co-transfected with Q57-YFP and SCR-CFP. Filled bar=cells co-transfected with Q57-YFP and QBP1-CFP. Dotted bar=cells co-transfected with Q57-YFP and (QBPI)2-CFP. COS-7 cells examined 48 hours after transfection using a Zeiss fluorescence microscope with rhodamine filter set. The percentage of dead cells was calculated by counting the number of transfected cells stained with ethidium homodimer and dividing by the total number of transfected cells multiplied times 100. In each experiment at least 200 transfected cells were counted. Experiments were repeated at least three times. Error bars represent standard errors. *=p<0.05; **=p<0.01 (Student's t-test).
# (§7) COS-7 cells were grown and maintained in Dulbecco's modified Eagles' medium (DMEM) supplemented with 10% fetal calf serum (FCS). Cells were transfected with Effectene according to manufacturer's instructions (Qiagen GmbH, Hilden, Germany). Cells were examined 48 hours after transfection using a Zeiss fluorescence microscope equipped with YFP/CFP filter sets (Omega Optical Inc., Brattleboro, Vt.). The percentage of cells with aggregates was calculated by dividing the number of cells with aggregates by the total number of fluorescent cells, multiplied by 100. Cell viability was examined 48 hours after transfection using ehtidium homodimer (Molecular Probes, Eugene, Oreg.). Cells were incubated with 5 μM ethidium homodimer for 30 minutes (37° C.) and then examined under a fluorescence microscope equipped with a rhodamine filter set. Cells with nuclear fluorescence were counted as dead. In each experiment at least 200 transfected cells were counted. Cells expressing random peptide-CFP (RAN-CFP) and polyglutamine-YFP (Qn-YFP) were used as a control to calculate the relative difference in aggregate formation and cell death. Experiments were repeated at least four times.
# The relationship between polyglutamine protein aggregation and cell death is controversial. To determine whether QBP1 or tandem-QBP1 inhibit polyglutamine-induced cell death, cell membrane permeability to ethidium homodimer was assayed. The membranes of living cells are impermeable to ethidium homodimer and permeability to ethidium homodimer is a well-established measure of cell death. Ethidium homodimer undergoes a 30-fold increase in fluorescence upon binding to nucleic acid allowing easy detection with a fluorescence microscope using a rhodamine filter. QBP1 and tandem QBP1 ((QBP1)2) fused to CFP inhibit Q57-YFP induced cell death (FIG. 5). […] Similar results have also been observed with Q45- and Q81-YFP (not shown).
# Q81-YFP [4] = assay: Q81-YFP aggregate formation in co-transfected COS-7 cells; format: cell-based; details: COS-7, 48 hours
# Method: (§8) COS-7 cells examined 48 hours after transfection using a Zeiss fluorescence microscope with the CFP/YFP filter set from Omega Optical Inc. The percentage of cells with aggregates was calculated by counting the number of transfected cells containing aggregate and dividing by the total number of transfected cells multiplied times 100. In each experiment at least 200 transfected cells were counted. Experiments were repeated at least four times. Error bars represent standard errors. *=p<0.05;**=p<0.01 (Student's t-test) […]
# as §6
# Q57-YFP = Q57-YFP aggregate formation in co-transfected COS-7 cells; format: cell-based; details: COS-7, 48 hours
# Method: as §8, §6
# Q81-YFP [5] = assay: Co-localization with Q81-YFP aggregates in co-transfected COS-7 cells; format: cell-based; details: co-expression, 48 hours after transfection
# Method: The CAG repeat of the Qn-GFP vector (Onodera, O. et al. (1996) FEBS Letters 399, 135-139) were inserted into the XhoI and EcoRI sites of the pEYFP-N1 vector (Clontech, Palo Alto, Calif.) to construct the Qn-YFP vectors. The polyglutamine-binding peptide and control constructs were prepared by ligating synthetic oligonucleotides into the XhoI and BamHI sites of the pECFP-N1 vector (Clontech) to obtain glutamine binding peptide 1-CFP (QBP1-CFP), scrambled QBP1-CFP (SCR-CFP), and a computer-generated random peptide-CFP (RAN)-CFP. The insert of QBP1-CFP was duplicated by PCR to obtain a tandem repeat of QBP1-CFP ((QBP1)2-CFP). The sequence of all constructs was confirmed by DNA sequencing. The first methionine of YFP or CFP was changed to isoleucine by PCR site-directed mutagenesis to eliminate translation of the fluorescent protein without the polyglutamine domain. The sizes of the fluorescent fusion proteins were confirmed by western blotting.
# as §7, with “Experiments were repeated at least four times.” left out
# Q45-YFP = Q45-YFP aggregate formation in co-transfected COS-7 cells; format: cell-based; details: COS-7, 48 hours
# Method: as §8, §6
# Q19-YFP = assay: Intracellular distribution of Q19-YFP in co-transfected COS-7 cells; format: cell-based
# Method: as §5
# as §6, with “dead.” for “dead. In each experiment at least 200 transfected cells were counted.”
# [6] = 5 μm peptide and 15 μM thio-polyglutamine
# [7] = peptides at 1 and 10 microMolar
# [8] = TAT-fused peptides, 10 μm peptide and 15 μM thio-polyglutamine
# [9] = versus random peptide fused to TAT
# [10] = compared to cells co-expressing RAN-CFP
# Chain of thio-Q62 (as listed by the source): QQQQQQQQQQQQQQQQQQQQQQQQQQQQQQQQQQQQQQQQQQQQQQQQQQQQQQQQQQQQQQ
# Chain of Q81-YFP (as listed by the source): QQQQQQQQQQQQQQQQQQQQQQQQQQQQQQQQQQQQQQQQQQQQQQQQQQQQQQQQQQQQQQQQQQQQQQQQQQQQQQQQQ
# Chain of Q45-YFP (as listed by the source): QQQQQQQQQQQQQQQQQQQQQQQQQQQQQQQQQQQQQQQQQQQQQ
# Chain of Q57-YFP (as listed by the source): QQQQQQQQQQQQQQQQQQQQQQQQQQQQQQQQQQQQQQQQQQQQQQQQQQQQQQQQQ
substance,measurement,setting,value
WKWWVWKWWP,Ability to Inhibit Aggregation,thio-Q62; [6],++++ (++++ = full inhibition)
WKWWPFD,inhibition of polyglutamine-thioredoxin aggregation (FIG. 6 and 7),thio-Q62; [7],some activity at high concentration
WDWWPGIFD,Ability to Inhibit Aggregation,thio-Q62; [6],++ (++ = 50% inhibition)
WKWW,inhibition of polyglutamine-thioredoxin aggregation (FIG. 6 and 7),thio-Q62; [7],does not exhibit substantial inhibition of aggregation
WKWWPWKWW,Ability to Inhibit Aggregation,thio-Q62; [6],+++ (+++ = 75% inhibition)
"WKWWFD [QBP1-M6FD, QBP1-M7FD with the proline removed]",inhibition of polyglutamine-thioredoxin aggregation (FIG. 6 and 7),thio-Q62; [7],significant loss of activity
WKWWPGIFD-TAT (WKWWPGIFDGGYGRKKRRQRRR),Ability to Inhibit Aggregation,thio-Q62; [8],+++ (+++ = 75% inhibition)
same,percentage of transfected cells with Q81-YFP aggregates,Q81-YFP [1]; peptide added to cells,22.1%
same,inhibition of Q81-YFP aggregation,Q81-YFP [1]; [9],32%
same,inhibition of cell death,[2]; [9],39%
same,percentage of transfected cells that died,[2]; within 72 hours,6.0%
SNWKWWPGIFD [QBP1],effect on percentage of cells with polyglutamine aggregates,Qn-YFP,decreases the number of cells containing polyglutamine aggregates
same,effect on turbidity of nonpathologic thio-Q19 or 35,thio-Q19 or 35,no effect
same,inhibition of Q57-YFP induced cell death,[3],inhibit; also recorded: inhibits polyglutamine-mediated cell death
same,effect on Q81-YFP aggregation (in words),Q81-YFP [4],did not reach statistical significance
same,reversal of thio-Q62 aggregation,thio-Q62; peptide added after aggregation,did not reverse aggregation
same,inhibition of thio-Q62 aggregation (in words),thio-Q62,potently inhibited
same,inhibition of thio-Q62 aggregation (in words),thio-Q62; listed as QBP 1,inhibits thio-Q62 aggregation in a concentration-dependent pattern
same,reduction of Q57-YFP aggregation,Q57-YFP; [10],26%
WKWWPWKWW-TAT (WKWWPWKWWGGYGRKKRRQRRR),Ability to Inhibit Aggregation,thio-Q62; [8],++++ (++++ = full inhibition)
WVWWPGIFD,Ability to Inhibit Aggregation,thio-Q62; [6],+++ (+++ = 75% inhibition)
SCR-CFP: scrambled QBP1 fused to cyan fluorescent protein (WPIWSKGNDWF; also: fused to cyan fluorescent protein) [reference compound],effect on Q81-YFP aggregation (in words),Q81-YFP [4],did not alter aggregation
same,co-localization with Q81-YFP aggregates,Q81-YFP [5],did not co-localize
same,effect on Q57-YFP aggregation (in words),Q57-YFP,did not alter aggregation
same,effect on Q45-YFP aggregation (in words),Q45-YFP,did not alter aggregation
WKWWVWKWWP-TAT (WKWWVWKWWPGGYGRKKRRQRRR),Ability to Inhibit Aggregation,thio-Q62; [8],++++ (++++ = full inhibition)
(QBP1)2-CFP: tandem repeat of QBP1 fused to cyan fluorescent protein (SNWKWWPGIFDSNWKWWPGIFD; also: fused to cyan fluorescent protein),effect on percentage of cells with polyglutamine aggregates,Qn-YFP,more effective
WLWWPGIFD,Ability to Inhibit Aggregation,thio-Q62; [6],++ (++ = 50% inhibition)
RAN-CFP: computer-generated random peptide fused to cyan fluorescent protein (LSLMEFGCRGA; also: fused to cyan fluorescent protein),co-localization with Q81-YFP aggregates,Q81-YFP [5],did not co-localize
WKWWPGIFD,Ability to Inhibit Aggregation,thio-Q62; [6],++++ (++++ = full inhibition)
same,effect on aggregation in cells (in words),Q81-YFP [1]; peptide added to cells,no effect
same,effect on cell death (in words),[2]; peptide added to cells,no effect
WKWWPGIF,inhibition of polyglutamine-thioredoxin aggregation (FIG. 6 and 7),thio-Q62,retains full inhibitory activity
WKWWVWKWW,Ability to Inhibit Aggregation,thio-Q62; [6],++ (++ = 50% inhibition)
"LSLMEFGCRGA [RAN, computer-generated random 11 amino acid peptide, reference compound]",effect on turbidity of nonpathologic thio-Q19 or 35,thio-Q19 or 35,no effect
same,inhibition of thio-Q62 aggregation (in words),thio-Q62,did not inhibit aggregation
"QBP1-CFP: QBP1 fused to cyan fluorescent protein, expressed in COS-7 cells (SNWKWWPGIFD; also: fused to cyan fluorescent protein)",effect on percentage of cells with polyglutamine aggregates,Qn-YFP,reduced the percentage of cells with polyglutamine aggregates
same,co-localization with Q81-YFP aggregates,Q81-YFP [5],co-localization
same,effect of co-expression on Q19-YFP distribution,Q19-YFP,unaffected
same,reduction of Q45-YFP aggregation,Q45-YFP; [10],39%
WWWWPGIFD,Ability to Inhibit Aggregation,thio-Q62; [6],++ (++ = 50% inhibition)
"WPIWSKGNDWF [SCR, reference compound]",effect on turbidity of nonpathologic thio-Q19 or 35,thio-Q19 or 35,no effect
same,inhibition of Q57-YFP induced cell death,[3],does not inhibit cell death
same,inhibition of thio-Q62 aggregation (in words),thio-Q62,did not inhibit aggregation
"SNWKWWPGIFDSNWKWWPGIFD [(QBP1)2, tandem repeat of QBP1]",inhibition of cell death compared with monomer QBP1,[3],more effective
same,inhibition of Q57-YFP induced cell death,[3],inhibit
